For series [1] the following is noted: for AUC0–24, median (IQR) / Cmax,ss, Median (IQR): Improved patients.
Source text: (§1) The TDM concentration data of therapeutic drugs in adults and pediatric patients with Gram-positive bacterial infection were collected.
(§2) The population pharmacokinetics model was composed of a structural model and random effect models using the first-order conditional estimation method (FOCE) with interaction. Demographic variables (e.g., gender, age, weight, height, body mass index [BMI]), renal function descriptors (serum creatinine, eGFR, creatinine clearance rate [CLCr], and albumin, etc.), and disease conditions (e.g., surgery or injury, chronic kidney disease, diabetes, cancer) were tested as potential covariates. Covariates were evaluated using the stepwise forward-selection method and backward elimination. The population PK model for adults and pediatric patients were evaluated respectively and the model parameters were compared. In order to unify the population PK model for adults and pediatric patients, the datasets were merged and the covariates were consolidated and reevaluated. […] The established population PK model was used to simulate individual PK parameters (Cmin, Cmax, AUC0–24) by Bayesian feedback method for the further PK/PD evaluation.
Series [2] can be described thus: Unified one-compartment population PK model (NONMEM, FOCE with interaction) for Chinese adults and pediatric patients.
Source text: as §1, §2
[3] abbreviates: Pulmonary, Not improved patients, IQR not reported for n < 5.

Like-named read-outs stand apart in the source and are kept apart here.

`CN[C@H](CC(C)C)C(=O)N[C@H]1C(=O)N[C@@H](CC(N)=O)C(=O)N[C@H]2C(=O)N[C@H]3C(=O)N[C@H](C(=O)N[C@H](C(=O)O)c4cc(O)cc(O)c4-c4cc3ccc4O)[C@H](O)c3ccc(c(Cl)c3)Oc3cc2cc(c3O[C@@H]2O[C@H](CO)[C@@H](O)[C@H](O)[C@H]2O[C@H]2C[C@](C)(N)[C@H](O)[C@H](C)O2)Oc2ccc(cc2Cl)[C@H]1O` [vancomycin]: the “AUC0–24, median (IQR)” value in series [1] (Bloodstream) is 215.9 (172.33, 305.85) hr*mg/L; in series [1] (Central nerve system), 303.3 (204.97, 386.18) hr*mg/L; in series [1] (Overall), 217.5 (172.87, 286.34) hr*mg/L; in series [1] (Pulmonary), 219.2 (183.44, 266.38) hr*mg/L; in series [1] (Urinary tract) it was 196.2 (145.03, 287.92) hr*mg/L. Moreover, the “Cmax,ss, Median (IQR)” value in series [1] (Bloodstream) is 23.32 (17.20, 26.57) mg/L; in series [1] (Central nerve system), 28.11 (24.75, 30.66) mg/L; in series [1] (Endocarditis), 21.50 (17.20, 23.70) mg/L; in series [1] (Pulmonary), 20.24 (16.24, 28.07) mg/L; in series [1] (Urinary tract), 22.08 (15.80, 25.63) mg/L. Further, the “Cmax,ss, Median” value in series [1] (Bloodstream, Not improved patients, IQR not reported for n < 5) was determined as 26.02 mg/L; in series [1] (Central nerve system, Not improved patients, IQR not reported for n < 5), 21.41 mg/L; in series [1] (setting [3]), 22.60 mg/L; in series [1] (Urinary tract, Not improved patients, IQR not reported for n < 5), 29.18 mg/L. Besides, the “Cmin,ss, Median” value in series [1] (setting [3]) is 3.32 mg/L. Besides, the “Age effect on V (θ5)” value in series [2] (bootstrap median) is 0.331; in series [2] (final model estimate, exponent), 0.33. For the same molecule, the “Body weight effect on V (θ6)” value in series [2] (bootstrap median) is 0.347; in series [2] (final model estimate, exponent) it was 0.349. In addition, the “V (θ2)” value is given as 44.8 L in series [2] (bootstrap median) and 44.7 L in series [2] (final model estimate, typical value at AGE 55, WT 58.25). Also, the “CL (θ1)” value is 3.82 L/h in series [2] (bootstrap median, 1,000 times); 3.83 L/h in series [2] (final model estimate, typical value at CLCr 90.28, WT 58.25, adults and pediatric patients).

The record behind these values is publication PMC8082182 (Frontiers in Pharmacology, 2021).
